Reference: patent US20080311103A1, “Anti-Inflammatory Peptides and Methods of Use Thereof” (YEDA RESEARCH AND DEVELOPMENT CO. LTD. at THE WEIZMANN …, priority 2004, published 2008)
Read-outs that look alike come from different tables or passages of the source. Ends that are not written are not given here.

Tests used:
[1] = Stability to serum proteases (HPLC); type: in vitro ADME, mouse
Description: To test the stability of peptide No. 5 to blood proteases, 100 μl of a 1 mg/ml solution of the peptide were incubated at 37° C. with 40 μl of mouse serum. Samples withdrawn after 0, 2, 4 or 24 hours were precipitated with 200 μl of methanol and centrifuged for 1 min at 10,000×g. The crude solution was analyzed by HPLC equipped with a 220 nm detector. The crude solution was diluted in 0.1% trifluoroacetic acid (TFA), applied on a RP-18^e column (Chromolith) (MERCK, Darmstadt, Germany), and the HPLC conditions were as follows: mobile phase A, TFA (0.1%) in water; mobile phase B: TFA (0.1%) in acetonitrile (75%). The flow rate was 3 ml/min and the gradient was 0 to 100% B for the first 10 min, 100% B for additional 5 min, and for the last 5 min the gradient was 100% B to 0.

[2] = tested on: mice sensitized with oxazolone; type: in vivo, mouse; conditions: ear measured 24 hours after oxazolone challenge, BALB/c mice
Description: Groups of 5 female inbred BALB/c mice (The Jackson Laboratory, Bar Harbor, Me.) were sensitized on the shaved abdominal skin with 2% oxazolone (100 μl) dissolved in acetone/olive oil [4:1 (vol/vol)] applied topically. Delayed type hypersensitivity (DTH) was elicited 5 days later by challenging the mice with 0.5% oxazolone in acetone/olive oil (10 μl given topically to each side of the ear). A constant area of the ear was measured immediately before and 24 hours after the challenge using a Mitutoyo engineer's micrometer. The percent inhibition of DTH is calculated as follows:
% Inhibition=[1-{(treated−negative control)/(positive control−negative control)}]×100.
The positive control is the DTH reaction to oxazolone elicited in sensitized mice without treatment. The negative control is the background swelling produced by the oxazolone antigen in naïve non-sensitized mice.
Peptides Nos. 1-5 were given to the mice by mini perfusion pumps (alzet osmotic pump model 2001), which contained the indicated peptide (40 μg; 200 μl). The pumps were implanted under the mouse skin one day before oxazolone sensitization and they released the peptide in a rate of 1 μl per hour (0.2 μg/hour) for 7 days.
Peptides Nos. 6-10 were given to the mice by subcutaneously injection (1 μg or 10 μg per mouse), every day, starting at one day before oxazolone sensitization and ending at day 5 post DTH initiation.

[3] = tested on: anti-CD3 antibody induced TNFα secretion from T cells; assay: TNFα secretion by anti-CD3 activated T cells; type: cell-based, human; conditions: peptide 100 ng/ml; 24 hours; ELISA; FIG. 7A
Description: (§1) Human T cells were purified and maintained in culture (RPMI containing 10% FCS, 1% Pyruvate, 1% glutamine, 1% antibiotics, 7.5% CO2, humidified atmosphere) for 15 hr before they were transferred to RPMI and activated (2 hr, 37° C.) with the indicated concentrations of the peptides. The cells were then plated (1.5×10^6 cells/0.5 ml/well) in 24 wells plates (non-tissue culture grade) precoated with anti-CD3 mAb in order to stimulate the cells to secrete cytokines. After 24 hours, the supernatants were collected and their cytokine content (TNFα and IFNγ) was determined by ELISA using anti-IFNγ and anti TNFα mAb (Pharmingen; San Diego, Calif.) according to the manufacturer's instructions.

[4] = tested on: anti-CD3 antibody induced IFNγ secretion from T cells; assay: IFNγ secretion by anti-CD3 activated T cells; type: cell-based, human; design: concentration or dose not given beside the values; conditions: 24 hours; ELISA; FIG. 7B
Description: as §1

[5] = tested on: NF-κB; assay: Nuclear translocation of NF-κB in T cells (Western blot); type: cell-based; conditions: peptide 100 ng/ml for 2 hours, then anti-CD3 mAb 24 hr; human T cells
Excerpt: To address the modulatory role of the wound fluid peptides on the signal transduction cascade leading to regulation of T-cell secretion of TNF-α(and IFN-γ, the nuclear translocation of NF-κB was detected by probing nuclear and cytoplasmic T-cell extracts using mAb specific for the p65 subunit of NF-κB. The nuclear protein Lamin B was used as continuatively expressed control protein for the quantification of protein amounts.
Human T cells. T cells were purified from the peripheral blood of healthy human donors (Blood Bank; Tel-Hashomer, Israel). The whole blood was incubated (20 min, 22° C.) with RosetteSep™ human T-cell enrichment cocktail (StemCell Technologies, Vancouver, BC, Canada). The remaining unsedimented cells were then loaded onto Lymphocyte Separation Medium (ICN Biomedicals; Belgium), isolated by density centrifugation, and washed with PBS. The purified cells (>95% CD3^+ T cells) so obtained were cultured in RPMI containing antibiotics and 10% heat-inactivated FCS. Western blot analysis of T-cell nuclear extracts. Purified T cells (5×10^6) were preincubated with the peptides (100 ng/ml) for 2 hours (37° C. in a 7% CO2, humidified atmosphere). The cells were then replated in 24-well plates pre-coated with anti-CD3 mAb for 24 hr (37° C. in a 7% CO2, humidified atmosphere). T cells were lysed in 10 mM HEPES, 1.5 mM MgCl2, 1 mM dithiothreitol (DTT), 1 mM PMSF, 0.5% Nonidet P-40. The lysates were incubated on ice for 10 min and centrifuged at 2000 rpm for 10 min at 4° C. The supernatants (cytoplasmic extracts) were transferred and the pellet (nuclei) was suspended in buffer containing 30 mM HEPES, 450 mM NaCl, 25% Glycerol, 0.5 mM EDTA, 6 mM DTT, 12 mM MgCl2 1 mM PMSF, 10 μg/ml leupeptin, 10 μg/ml pepstatin, 1% phosphatase inhibitor cocktail, and the suspension was incubated on ice for 30 min. The lysates were cleared by centrifugation (30 min, 14×10^3 rpm, 4° C.), and the resulting supernatants analyzed for protein content. […]

[6] = tested on: T cells; assay: Chemotaxis assay: T cell migration toward SDF-1α; type: cell-based; conditions: SDF-1α 250 ng/ml, 3 hr
Description: The migration of ^51-[Cr]-labeled T cells was examined in […] Transwell chemotaxis apparatus (6.5-mm diameter; Corning, N.Y.), consisting of two compartments separated by polycarbonate filters (5 μm pore size) pretreated (1 hr, 37° C.) with FN (25 μg/ml). ^51-[Cr]-labeled T cells (2×10^5 in 100 μl of RPMI containing 0.1% BSA and antibiotics), which were pre-incubated with the indicated concentrations of peptides (30 min, 37° C.), were added to the upper chambers. The bottom chambers contained 0.6 ml of the same media, with or without human Stromal cell-Derived Factor-1α (SDF-1α; 250 ng/ml). After incubation at 37° C. for 3 hr (7.5% CO2-humidified atmosphere), cells that had transmigrated into the lower wells were collected, centrifuged, and lysed (in 100 μl of distilled water containing 1 M NaOH and 0.1% Triton X-100), and the radioactivity in the resulting supernatants was determined with a γ-counter. The percentage (±SD) of cell migration was calculated as the radioactivity counts in the lysates of the lower chambers (representative of the migrating cells) divided by the total counts (representative of 2×10^5 cells).

[7] = tested on: Jurkat and THP-1 cells; assay: TNFα secretion by PMA/PHA induced Jurkat and THP-1 cells; type: cell-based, human; conditions: 48 hours, ELISA
Description: Jurkat cells human T cell lymphoma line) (2×10^6 cells/ml) cultured in RPMI-1640 supplemented with 10% FCS were activated with PMA (50 ng/ml) and phytohaemagglutinin PHA (4 µg/ml) for 6 hours at 37° C. (7.5% CO2-humidified atmosphere). Thereafter, the cells were washed, plated on 24-well plates (10^6 cells/well in 0.5 ml), and incubated (1 hour at 37° C., 7.5% CO2-humidified atmosphere) with the indicated concentrations of peptides 1-5. Following the incubation, THP-1 cells (human monocytic cell line derived from a patient with acute monocytic leukaemia; 1.25×10^5 cells/0.5 ml/well) were added to the wells. After 48 hours, the supernatants were collected and their TNF[…] content was determined by ELISA using anti TNF[…] mAb (Pharmingen; San Diego, Calif.) according to the manufacturer's instructions.

[8] = tested on: BALB/C mice; assay: TNBS-induced colitis model of inflammatory bowel disease (IBD); type: in vivo, mouse; conditions: 200 μg/mouse SC daily; day 7 after TNBS
Description: BALB/C mice, which were anesthetized for 5-10 min, received by intrarectal administration, 30 μl of a solution of 2,4,6-trinitrobenzene sulfonic acid (TNBS; 100 mg/kg) dissolved in 0.9% NaCl and mixed with an equal volume of ethanol (50% ethanol). Animals were killed 7 days after TNBS administration.
Wound fluid peptides were administered once daily by subcutaneous (SC) administration starting 1 day before the induction of colitis and every day for the next 7 days as follows:
Treatment with the wound fluid peptides was evaluated at day 7 by determination of macroscopic inflammation scores. The colon of each mouse was examined under a dissecting microscope to evaluate the macroscopic lesions according to the Wallace criteria. The Wallace score lists macroscopic colon lesions on a scale from 0 to 10 based on features reflecting inflammation, such as hyperemia, thickening of the bowel, and extent of ulceration (Wallace, J. L., et al. 1989, Gastroenterology, 96:29).

[9] = FIG. 2, peptides subcutaneously 1 μg or 10 μg per mouse every day
[10] = FIG. 1, peptides by implanted osmotic pump, 0.2 μg/hour for 7 days

NPDESSKPNMI [peptide No. 5, NPDESSKPNMI]
% Area (HPLC peak of peptide) ([1]; Test 1, 0 hours incubation with mouse serum): 74.23% | % Area (HPLC peak of peptide) ([1]; Test 1, 2 hours incubation at 37° C. with mouse serum): 75.08% | % Area (HPLC peak of peptide) ([1]; Test 1, 4 hours incubation at 37° C. with mouse serum): 68.94% | % Area (HPLC peak of peptide) ([1]; Test 1, 24 hours incubation at 37° C. with mouse serum): 68.69% | % Area (HPLC peak of peptide) ([1]; Test 2, 0 hours incubation with mouse serum): 90.62% | % Area (HPLC peak of peptide) ([1]; Test 2, 2 hours incubation at 37° C. with mouse serum): 87.32% | resistance to serum proteases ([1]; mouse serum, up to 24 hours): highly resistant | metabolised at 2 h, 0.71 mg/ml ([1]; mouse, mouse serum, after 2 hours (test 2), read-out: peptide degraded in the presence of mouse serum): ~3.5% | metabolised at 4 h, 0.71 mg/ml ([1]; mouse, mouse serum, after 4 hours (test 1), read-out: peptide degraded in the presence of mouse serum): 7.5% | metabolised at 24 h, 0.71 mg/ml ([1]; mouse, mouse serum, after 24 hours (test 1), read-out: peptide degraded in the presence of mouse serum): 7.5% | remaining at 24 h, 0.71 mg/ml ([1]; mouse, mouse serum, after 24 hours of exposure to serum proteases, read-out: peptide still present as an intact peptide): > 90%

ELERPGGNEI [compound 6, residues 260-269 of Fibrinogen Aα; identified in wound fluids, then synthesized]
inhibition of DTH response [2, 9]: 50% | inhibition of anti-CD3 antibody induced TNFα secretion from T cells [3]: 40% | inhibition of anti-CD3 antibody induced IFNγ secretion from T cells [4]: 40% | NF-κB translocation to the nucleus [5]: significant down-regulation

NDADDST [compound 9, residues 302-308 of Cadherin 4; identified in wound fluids, then synthesized]
inhibition of DTH response [2, 9]: hardly inhibited | inhibition of anti-CD3 antibody induced TNFα secretion from T cells [3]: ~50% | inhibition of anti-CD3 antibody induced IFNγ secretion from T cells [4]: 40%

TDYGKDLMEKV [peptide No. 4, residues 42-52 of Apo A-II; identified in wound fluids, then synthesized]
inhibition of DTH response [2, 10]: hardly inhibited | inhibition of T cell migration toward SDF-1α ([6]; peptide 1000 ng/ml): 30% | inhibition of TNFα secretion by Jurkat and THP-1 cells compared to PMA/PHA alone ([7]; peptide 1 μg/ml): 40% | inhibition of anti-CD3 antibody induced TNFα secretion from T cells [3]: ~50% | inhibition of anti-CD3 antibody induced IFNγ secretion from T cells [4]: ~50%

ALTDMPQM [compound 7, residues 250-257 of Fibrinogen Aα; identified in wound fluids, then synthesized]
inhibition of DTH response [2, 9]: hardly inhibited | inhibition of anti-CD3 antibody induced TNFα secretion from T cells [3]: 30% | inhibition of anti-CD3 antibody induced IFNγ secretion from T cells [4]: 30%

NQGEESAEI [compound 10, residues 470-478 of Calcitonin receptor; identified in wound fluids, then synthesized]
inhibition of DTH response [2, 9]: 30% | inhibition of anti-CD3 antibody induced TNFα secretion from T cells [3]: ~70% | inhibition of anti-CD3 antibody induced IFNγ secretion from T cells [4]: 75%

DHSKNPVGV [compound 8, residues 320-328 of ADAM 8; identified in wound fluids, then synthesized]
inhibition of DTH response [2, 9]: 60% | inhibition of anti-CD3 antibody induced TNFα secretion from T cells [3]: 30% | inhibition of anti-CD3 antibody induced IFNγ secretion from T cells [4]: 15%

MIESSMN [compound 1, residues 827-833 of LRP5; identified in wound fluids, then synthesized]
inhibition of DTH response [2, 10]: hardly inhibited | inhibition of T cell transmigration toward SDF-1α ([6]; concentration range 10-1000 ng/ml): did not show a significant inhibition | inhibition of TNFα secretion by Jurkat and THP-1 cells ([7]; concentration range 1-1000 ng/ml): did not exert a significant inhibition

C[C@@H]1C[C@H]2[C@@H]3CCC4=CC(=O)C=C[C@]4(C)[C@@]3(F)[C@@H](O)C[C@]2(C)[C@@]1(O)C(=O)CO [Dexamethasone, reference compound]
inhibition of DTH response [2, 10]: ~70% | inhibition of DTH response [2, 9]: ~70% | Wallace score (macroscopic inflammation score, scale 0 to 10) [8]: 2.9±1
